According to patent US20230331762A1, “CRYSTALLINE FORM OF ASPACYTARABINE” (Biosight Ltd., priority 2020, published 2023):
“Also recorded” adds a separate entry of the source. Like-named read-outs stand apart in the source and are kept apart here.

Assays:
Format in all cases: physicochemical
Solubility in water = assay: Solubility in water
[1] = Solubility in organic solvents
[2] = Thermodynamic stability of the solid form; conditions: crystalline vs amorphous
[3] = Decomposition in solvents

solubility in water (Solubility in water)	solubility in water (Solubility in water; result in words)	solubility in DCM ([1]; DCM)	solubility in EtOH ([1]; EtOH)	solubility in MeOH ([1]; MeOH)	solubility in NMP ([1]; NMP)	solubility in THF ([1]; THF)	solubility in an amide solvent ([1]; amide solvent)	solubility in ethyl acetate ([1]; ethyl acetate)	solubility in toluene ([1]; toluene)	decomposition in DMF ([3]; strong polar aprotic solvent DMF)	decomposition in DMSO ([3]; strong polar aprotic solvent DMSO)	decomposition in water ([3]; water, rate is determined by heat and time)	Structure (SMILES)	solubility in most organic solvents ([1]; most organic solvents)	thermodynamic stability [2]
up to 2%	insoluble; also recorded: not soluble	not soluble	not soluble	not soluble	soluble	not soluble	soluble	not soluble	not soluble				N[C@@H](CC(=O)Nc1ccn([C@@H]2O[C@H](CO)[C@@H](O)[C@@H]2O)c(=O)n1)C(=O)O [Form B, (S)-2-amino-4-((1-((2R,3S,4S,5R)-3,4-dihydroxy-5-(hydroxymethyl)tetrahydrofuran-2-yl)-2-oxo-1,2-dihydropyrimidin-4-yl)amino)-4-oxobutanoic acid]	non soluble; also recorded: insoluble; also recorded: not soluble	thermodynamically more stable than the amorphous form
										decompose	decompose	decompose	Cl.N[C@@H](CC(=O)Nc1ccn([C@@H]2O[C@H](CO)[C@@H](O)[C@@H]2O)c(=O)n1)C(=O)O [aspacytarabine-HCl]		
